Where two headings read alike, the source gives them in different places.

Here are results for three compounds from patent publication US8497075B2, “Methods of identifying a modulator that inhibits the binding between Epstein-Barr virus induced receptor 2 and cholesterol derived ligands” (Novartis AG, priority 2008, dated 2013).

Holding throughout (design): expressed in transfected cells; host or cells: CHO-K1 expressing apoaequorin (CHO-Aeq) with Gqi5; line E2
For experiment [1], the target named is T1, hEBI2 (Homo sapiens, UniProt P32249). The experiment in a line: GTPγS assay on EBI2 membranes. It is filed as biochemical. The method, then:
(§1) The cell suspension was then homogenized using a Dounce homogenizer (10 strokes) with a driller. After centrifugation at 110000×g for 45 minutes and removal of the supernatant, pellets were resuspended in sucrose buffer (50 mM Tris pH7.2, 250 mM sucrose, 10% glycerol) by vortexing. The suspension was again homogenize using a Dounce homogenizer (10 strokes) and spun at 100000×g for 45 minutes. The supernatant was discarded, the pellet resuspended in sucrose buffer, protein concentration determined, aliquoted and frozen at −80° C. These membrane preparations were used in binding as well as GTPgS assays.
Ten micrograms of EBI2 membranes are dissolved in 40 μl of buffer A (20 mM Hepes pH 7.4, 100 mM NaCl, 1.5 mM MgCl2, Saponin 10 μg/ml) supplemented with 10 μM GDP. After addition of […] scintilation proximity assay (SPA) beads (100 μg/well, Amersham, RPNQ0001) components are gently mixed and incubated at RT for 15 minutes. Twenty microliters of compound diluted in buffer A and 20 μl of GTPγ^35S (Perkin Elmer NEG030X) is added before incubation for one hour at RT. Plates are transferred and counted in a TopCount (Perkin Elmer NXT HTS™) and counts are analysed plotted and to determine half maximal concentrations of activation using standard software (Prism™, GraphPad Software Inc.).

The target of experiment [2] is T1, hEBI2. The experiment in a line: calcium fluorescence (FLIPR). It is filed as cell-based. The method, then:
If not stated otherwise compounds were dissolved at 10 mM in DMSO or ethanol (cholesterol, 25MDC). Serial dilutions were carried out in 90% DMSO (FLIPR, GTPgS) or assay buffer (binding assay). For cell based assays final DMSO concentrations is kept below 1%.
If not stated otherwise, the same Chinese hamster ovary (CHO) cell line called E2 which was used for the ligand identification was used in these experiments. This cell line is expressing (1) the recombinant human EBI2 receptor, (2) the promiscuous Gqi5 protein as well as (3) apo-aequorin.
Cells were seeded in black/clear bottom, poly-D-Lysine coated 384-well plates at a cell density of 10,000 cells/25 μL/well, using culture medium. Cells were cultured for 24 hours at 37° C./5% CO2. Culture medium was removed and for cell loading, 20 μl per well of loading buffer (Calcium-4 no wash dye) were distributed into the wells and the plates were incubated for 60 min at 37° C. in 5% CO2. With the FLIPR pipettor, 10 μl of the different compounds were added to the cells and the subsequent fluorescent changes monitored for 3 minutes. Using the FLIPR software tool, 2 values of fluorescence calcium responses were exported: Fmax, the fluorescence at the peak and Fbasal corresponding to the value prior to compound injection. From these two values, the calcium response is normalized with respect to the calcium baseline values using dF/F=(Fmax−Fbasal)/Fbasal. The maximum dF/F is called Emax.

The target of experiment [3] is T1, hEBI2. The experiment in a line: [3H] 7a,25DHC radio-ligand binding assay (SPA), IC50 determination. As to the method: as §1
Lyophilized wheat germ agglutinin scintilation proximity assay (SPA) beads (RPNQ0001) were purchased from GE Healthcare (Buckinghamshire, UK). One vial (500 mg) is reconstituted by adding 5 mL of distilled water to give a final concentration of 100 mg/mL. Reconstituted SPA beads must be stored at 4° C., but must not be frozen. [3H]-7a,25-OHC, was synthesized by reduction of the 7-keto, 25DHC in the presence of 3H-L-selectride.
The SPA assay was performed in a final volume of 50 μl per well in a 384-well polystyrene Opti plate. The components were added into the wells as follows: • 10 μl tested compounds in 50 mM Tris; 100 mM NaCl; 5 mM MgCl2 and 0.1% Cyclodextrine.
Total binding was determined by the addition of 10 μl of 50 mM Tris; 100 mM NaCl; 5 mM MgCl2 and 0.1% Cyclodextrine and non-specific binding was determined by the addition of 10 μl NVP-BYX998-NX-4 (final concentration of 10 μM). • 20 μL of 10 nM final [3H]-BYX998 in assay buffer (50 mM Tris-HCl, 100 mM NaCl, 5 mM MgCl2 and 0.1% Cyclodextrine). • 20 μL of a mixed bead and membrane suspension in assay buffer, in order to get a final concentration of 20 μg membranes/well and 200 μg beads/well.
The plates were sealed and shaken at room temperature for 10 minutes then allowed to stand at room temperature for at least 12 hours. The plates were counted using a Perkin Elmer TopCount reader, each well being counted for 1 minute.
Each IC50 determination was performed with 11 concentrations.
A standard data reduction algorithm was used to calculate the percentage of specific binding in the presence of test compound as follows: ((B−NSB)/(Total−NSB))·100, where B=Binding in the presence of test compound (in cpm) NSB=Non-specific binding in the presence of excess inhibitor (in cpm) Total=Binding in the absence of test compound (in cpm) Curve fitting of the normalized concentration response curves using a four parameter logistic fit is then performed using XLfit (v.2 or v.4, IDBS, Guildford, UK). The equation used is XLfit equation no. […] By default, min is fixed at 0, whereas max is not fixed.

Setting [4] is: 10 nM radioligand, n = 3, read-out: [^3H] 7a,25DHC Binding IC50.

T1 sequence (P32249 whole entry): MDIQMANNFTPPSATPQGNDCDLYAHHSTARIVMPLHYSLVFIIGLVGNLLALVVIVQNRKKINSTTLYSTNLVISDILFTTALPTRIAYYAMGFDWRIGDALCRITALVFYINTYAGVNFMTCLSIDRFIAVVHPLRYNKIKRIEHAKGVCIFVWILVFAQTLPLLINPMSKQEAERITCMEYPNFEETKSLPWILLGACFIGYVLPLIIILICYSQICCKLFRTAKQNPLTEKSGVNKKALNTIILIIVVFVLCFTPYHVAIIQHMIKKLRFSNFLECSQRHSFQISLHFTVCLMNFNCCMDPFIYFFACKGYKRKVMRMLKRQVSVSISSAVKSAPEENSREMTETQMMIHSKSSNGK

As to `C[C@H](CCCC(C)(C)O)[C@H]1CC[C@H]2[C@@H]3[C@H](O)C=C4C[C@@H](O)CC[C@]4(C)[C@H]3CC[C@]12C` [7a,25DHC, cholest-5-ene-3b,7a,25-triol], the values for the EC50 in experiment [1] and in experiment [2] were 7.5 nM and 1.9 nM, respectively. Besides, in experiment [3] (setting [4]), the IC50 was found to be 70.4 nM.

As for `CC(CO)CCC[C@@H](C)[C@H]1CC[C@H]2[C@@H]3[C@H](O)C=C4C[C@@H](O)CC[C@]4(C)[C@H]3CC[C@]12C` (stereo partly drawn) [7a,27DHC, cholest-5-ene-3b,7a,27-triol], the EC50 was determined as 5.1 nM in experiment [1] and 4.8 nM in experiment [2]. Besides, in experiment [3], the IC50 was found to be 362 nM.

For `C[C@H](CCCC(C)(C)O)[C@H]1CC[C@H]2[C@@H]3[C@@H](O)C=C4C[C@@H](O)CC[C@]4(C)[C@H]3CC[C@]12C` [7b,25DHC, cholest-5-ene-3b,7b,25-triol], the EC50 worked out at 221 nM in experiment [1] (n = 3-4, read-out: GTPgS EC50) and 121 nM in experiment [2] (n = 3-4, read-out: FLIPR EC50). The IC50 in experiment [3] (setting [4]) amounted to 2630 nM.
